From patent US11744863B2, “Process for preparing a pooled human platelet lysate, pooled human platelet lysate and its use for treating neurological disorders” (priority 2017, dated 2023)

Experiment: Body weight evolution of treated mice
Assay type: in vivo
Method: The mice enrolled were FVB-Tg(Sod1*G86R)M1Jwg/J mice from JAX laboratories. Animals were group-housed (10 per cage) in a temperature-controlled room (22±2° C.) with a 12/12-hour light/dark cycle. Food and water were feed ad-libitum. […] Breeding was realized (since 2013 may) in SOPF facility and genotyping is performed by qPCR (from tail biopsy). Animal are identified with earrings.
Mice were handled and weighted at the age of 60 days. Canula implantation in intra cerebro-ventricular (ICV) by stereotaxie start at this date and mice are acclimated during 1 week.
(Gurney and al, Neurology, 1998). Then they were evaluated, twice a week (i.e. body weight and neuroscore), from the age of 67 days to their death.
Two different treatments are performed from 75 days to death: • HT_pHPL prepared as described in example 1 and at 1 g/L, pH 7.4 versus vehicle. The dose of HT_pHPL administrated by intermittent ICV was 4 μL, three times a week at rate of 0.5 μL/min. […]

SMILES: Nc1nc2ccc(OC(F)(F)F)cc2s1 [Riluzole]
- day of body weight decrease (Tg mice FVB-Tg(Sod1*G86R)): 88 days
- effect on body weight evolution (WT mice): no effect
